Active and inactive are the calls of the source. No cut-off for these calls is given here.

What all share (format): functional, organism-based
In one assay the test system is Mycotypha microspora. Briefly: Antifungal activity against Mycotypha microspora at 50 ug by agar diffusion test.
The next assay concerns Microbotryum violaceum. Briefly: Antifungal activity against Ustilago violacea at 50 ug by agar diffusion test.
The test system of assay [1] is Aspergillus pseudoglaucus. Briefly: Antifungal activity against Eurotium repens at 50 ug by agar diffusion test.
Another assay has as its system Priestia megaterium. Briefly: […] activity against Bacillus megaterium at 50 ug by agar diffusion test.

Take `CC(=O)[C@@H](C)c1cc(O)cc(O)c1`: the result in the assay with Mycotypha microspora and with Microbotryum violaceum was Active.
In the case of `C[C@H]1OC(=O)c2c(O)cccc2[C@H]1O`, the outcome (in assay [1]; in the assay with Microbotryum violaceum) was Active.
As for `O=C1CCC(O)c2cccc(O)c21` (stereo not drawn), the result (in assay [1]; with Microbotryum violaceum) was Active.
On to `OCc1ccco1`, for which, in the assay on Priestia megaterium, the result was Active.
In the case of `CO[C@]12C=C3C=CC(=O)[C@@H](C)[C@@]3(C)C[C@@]1(O)[C@H](C)CO2`, the outcome (in assay [1]; with Microbotryum violaceum) was Active.
Consider `COc1cc(O)c2c(c1)C[C@@H](C)OC2=O`, for which the result in assay [1] was Active.
Still for that read-out and setting: the result for `C[C@@H]1Cc2cccc(O)c2C(=O)O1` reads “Active”.
As for `COc1cc2c(c(O)c1Cl)C(=O)O[C@H](C)C2`, the result in assay [1] was Active.
`C[C@H]1OC(=O)c2c(O)cccc2[C@@H]1O`: in the assay on Microbotryum violaceum, the result was Active.

The record behind these values is ChEMBL document CHEMBL1157994, “Three new metabolites from marine-derived fungi of the genera coniothyrium and microsphaeropsis” (J Nat Prod, 1999).
